This assay deals with T1, DDK (Dbf4-dependent Cdc7 kinase, Cdc7-Dbf4) (Saccharomyces cerevisiae, UniProt P06243).
T1 construct: full-length Cdc7-Dbf4, expressed in budding yeast, MBP tag cleaved with PreScission, lambda phosphatase treated; with DDK kinase regulatory subunit DBF4
Briefly: inhibition of MCM2-7 phosphorylation by DDK (gel). It counts as biochemical. To be noted: substrate MCM2-7.

T1 sequence (P06243 whole entry): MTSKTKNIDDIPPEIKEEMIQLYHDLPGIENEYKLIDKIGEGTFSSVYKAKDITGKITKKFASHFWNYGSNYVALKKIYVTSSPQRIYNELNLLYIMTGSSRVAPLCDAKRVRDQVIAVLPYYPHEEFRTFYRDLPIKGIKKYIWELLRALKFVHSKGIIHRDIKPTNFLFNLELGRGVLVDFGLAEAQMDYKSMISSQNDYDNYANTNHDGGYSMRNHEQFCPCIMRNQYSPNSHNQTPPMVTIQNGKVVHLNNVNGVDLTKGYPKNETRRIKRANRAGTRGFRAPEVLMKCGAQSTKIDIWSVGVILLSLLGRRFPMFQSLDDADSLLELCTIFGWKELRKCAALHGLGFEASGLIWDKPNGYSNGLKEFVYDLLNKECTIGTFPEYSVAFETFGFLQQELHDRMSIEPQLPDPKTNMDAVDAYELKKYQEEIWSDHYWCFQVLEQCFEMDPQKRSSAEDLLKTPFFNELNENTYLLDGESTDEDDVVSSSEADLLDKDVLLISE
T1 sequence (P32325 whole entry partner): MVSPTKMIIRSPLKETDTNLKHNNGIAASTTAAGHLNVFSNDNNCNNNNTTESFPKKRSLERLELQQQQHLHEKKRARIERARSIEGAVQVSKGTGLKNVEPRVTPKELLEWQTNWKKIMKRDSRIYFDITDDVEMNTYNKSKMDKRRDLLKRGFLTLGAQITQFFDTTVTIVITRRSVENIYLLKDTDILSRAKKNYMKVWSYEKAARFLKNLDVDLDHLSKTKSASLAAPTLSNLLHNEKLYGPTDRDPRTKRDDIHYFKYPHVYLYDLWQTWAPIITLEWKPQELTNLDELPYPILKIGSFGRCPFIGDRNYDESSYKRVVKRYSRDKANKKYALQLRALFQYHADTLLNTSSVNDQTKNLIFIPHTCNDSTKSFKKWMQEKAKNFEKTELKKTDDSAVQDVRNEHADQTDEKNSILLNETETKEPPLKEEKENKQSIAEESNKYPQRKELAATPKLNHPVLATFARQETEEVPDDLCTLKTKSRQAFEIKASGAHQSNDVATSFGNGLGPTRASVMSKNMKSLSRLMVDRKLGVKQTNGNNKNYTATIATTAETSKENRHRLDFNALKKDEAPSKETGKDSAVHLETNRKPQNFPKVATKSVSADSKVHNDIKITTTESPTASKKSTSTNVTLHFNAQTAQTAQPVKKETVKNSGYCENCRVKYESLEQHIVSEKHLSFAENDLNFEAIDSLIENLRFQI

On to `O=C1NCCc2[nH]c(-c3ccncc3)cc21` [PHA767491], for which the inhibition result is “DDK phosphorylation of MCM2-7 is inhibited by the human Cdc7 inhibitors: XL413, PHA767491 and TAK931”. With `Cc1[nH]ncc1-c1cc2nc([C@@H]3CC4CCN3CC4)[nH]c(=O)c2s1` [TAK931] the entry was “DDK phosphorylation of MCM2-7 is inhibited by the human Cdc7 inhibitors: XL413, PHA767491 and TAK931”. With `O=c1[nH]c([C@@H]2CCCN2)nc2c1oc1ccc(Cl)cc12` [XL413] the entry was “DDK phosphorylation of MCM2-7 is inhibited by the human Cdc7 inhibitors: XL413, PHA767491 and TAK931”.

(Values after paper PMC9133112, “The structural basis of Cdc7-Dbf4 kinase dependent targeting and phosphorylation of the MCM2-7 double hexamer” (Nature Communications, 2022).)
